Laboratory results from patent US9938273B2 (Plexxikon Inc., priority 2015, dated 2018).

How the values were obtained:
[1] = target: T1, FLT3-D835Y (Homo sapiens, UniProt P36888, D835Y); test: AlphaScreen kinase assay with recombinant enzyme, FLT3-D835Y; format: biochemical; conditions: 8pt, GMean
T1 construct: purchased Invitrogen PV3967
T1 sequence (P36888 27-993 D835Y): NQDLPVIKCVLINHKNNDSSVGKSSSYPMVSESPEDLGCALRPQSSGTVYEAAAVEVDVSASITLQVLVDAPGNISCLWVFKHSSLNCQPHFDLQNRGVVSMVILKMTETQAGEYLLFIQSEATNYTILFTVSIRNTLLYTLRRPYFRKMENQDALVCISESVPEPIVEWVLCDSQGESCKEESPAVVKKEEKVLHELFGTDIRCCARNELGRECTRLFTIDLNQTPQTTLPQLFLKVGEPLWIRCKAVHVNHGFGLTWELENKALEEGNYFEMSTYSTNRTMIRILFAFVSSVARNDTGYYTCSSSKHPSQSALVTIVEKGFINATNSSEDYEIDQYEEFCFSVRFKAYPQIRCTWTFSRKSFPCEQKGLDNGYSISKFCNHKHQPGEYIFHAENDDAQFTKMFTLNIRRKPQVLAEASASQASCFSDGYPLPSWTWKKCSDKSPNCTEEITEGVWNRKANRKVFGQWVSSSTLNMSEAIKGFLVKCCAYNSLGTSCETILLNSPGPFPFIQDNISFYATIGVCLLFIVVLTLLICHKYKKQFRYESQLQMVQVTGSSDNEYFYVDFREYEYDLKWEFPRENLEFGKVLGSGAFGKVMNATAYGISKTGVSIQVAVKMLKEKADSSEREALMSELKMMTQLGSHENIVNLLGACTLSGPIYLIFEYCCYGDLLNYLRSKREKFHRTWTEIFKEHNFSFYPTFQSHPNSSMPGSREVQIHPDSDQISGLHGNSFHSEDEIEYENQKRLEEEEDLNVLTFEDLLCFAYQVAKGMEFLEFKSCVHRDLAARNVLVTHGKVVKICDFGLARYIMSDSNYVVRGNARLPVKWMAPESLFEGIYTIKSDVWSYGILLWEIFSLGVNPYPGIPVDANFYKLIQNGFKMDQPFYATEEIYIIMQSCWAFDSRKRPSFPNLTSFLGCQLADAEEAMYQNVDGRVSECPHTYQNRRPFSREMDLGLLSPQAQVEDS
Protocol: In order to determine the effect of compounds on FLT3 catalytic activity, kinase assays using recombinant enzymes and AlphaScreen® technology have been established. The catalytic activity of c-kit activity was also measured to determine selectivity of the compounds. When the kinases are catalytically active, they phosphorylate a biotinylated peptide substrate on tyrosine residues. Using AlphaScreen® technology, the ability of the compounds to affect the catalytic activity of the kinases can be measured quantitatively. The peptide substrate is immobilized by the AlphaScreen® Streptavidin Donor beads and, upon phosphorylation by a tyrosine kinase, can bind to AlphaScreen® Anti-Phosphotyrosine (PY20) Acceptor beads. Upon excitation of these beads with laser light at 680 nm, singlet oxygen is produced. This singlet oxygen is rapidly quenched, unless the AlphaScreen® Anti-Phosphotyrosine (PY20) Acceptor beads are in close proximity, in which case a proximity signal can be measured at 580 nm. In the presence of catalytic activity, there is a very strong proximity signal. Selective kinase inhibitors affect a decrease in this proximity signal through a decrease in tyrosine phosphorylation of the peptide substrate.
The assay was performed as summarized below.
Poly (Glu4-Tyr) Peptide, biotin conjugate [Biotin-GG(EEEEY)10EE] (SEQ ID NO: 4)
Final concentration=30 nM
Final concentration for IC50 determination=10 μM (FLT3-D835Y or FLT3-ITD) or 100 μM (c-KIT)
AlphaScreen® Phosphotyrosine (PY20) Assay Kit
Final concentration=10 μg/mL
Dilute compounds in DMSO to 20× final concentration.
Add 1 μl of compound to each well of 384 well reaction plate (Perkin Elmer #6005359).
Mix enzyme and Poly (Glu4-Tyr) Peptide substrate at 1.33× final concentration in assay buffer.
Mix ATP at 5× final concentration in assay buffer.
Add 15 μL enzyme/substrate mixture to the reaction plate.
Add 4 μL of ATP to the reaction plate.
Mix Streptavidin Donor beads at 6× final concentration in Stop/Detection buffer.
Add 5 μL Streptavidin Donor beads to the reaction plate. Centrifuge 1 minute, shake to mix, and incubate at room temperature for 20 minutes.
Mix Anti-Phosphotyrosine (PY20) Acceptor beads at 6× final concentration in Stop/Detection buffer.
Add 5 μL Anti-Phosphotyrosine (PY20) beads to the reaction plate.
Centrifuge 1 minute, shake to mix, and incubate at room temperature for 60 minutes.
Read plate on Wallac EnVision™ 2103 Multilabel Reader.

[2] = tested on: MOLM-14 D835Y cells, FLT3 ITD and FLT3 D835Y; test: Cell proliferation assay (CellTiter-Glo), MOLM-14 D835Y; format: cell-based; conditions: Homo sapiens, 72 h, 3d-Growth, GMean
From the text: The FLT3 inhibitors may be assessed using the MOLM-14, Acute Myeloid Leukemia cell line that endogenously expresses FLT3 ITD or derivatives of the human FLT3 AML cell line which acquired the D835Y (activation loop) of F691L (gatekeeper) mutation after selection in escalating doses of the FLT3 Inhibitor AC220. FLT3 inhibitors may also be assessed using cells that are engineered to express mutant FLT3. For engineered cells, murine Ba/F3 cells were transfected with full-length FLT3 ITD/D835Y mutations. The parental BA/F3 cells are dependent upon Interleukin-3 (IL-3) for survival, and introduction of the FLT3 constructs rendered these cells dependent upon FLT3 kinase activity when cultured in the absences of IL-3. Engineered BA/F3 cell growth assays can be performed in either the […] of IL-3, to assess the compound inhibition of FLT3 or to detect the presence of off-target activity, respectively. Inhibitors of FLT3 kinase activity reduce or eliminate the FLT3 oncogenic signaling, resulting in reduced cell proliferation. This inhibition is measured as a function of compound concentration to asses IC50 values.
Cell lines used in proliferation assays are as follows in Table 3:
Cells were seeded at 1×10^4 cells per well of a 96 well cell culture plate in 50 μl of cell culture medium. Compounds were dissolved in DMSO, typically at a concentration of 0.5 mM and were serially diluted 1:3 for a total of eight points and added to the cells to final concentrations of […], 0.0041, 0.0014 and 0.00046 μM in 100 μl cell culture medium (final concentration 0.2% DMSO). […] The cells were incubated at 37° C., 5% CO2 for three days. CellTiter-Glo Buffer (Promega Cell Viability Assay catalog #G7573) and substrate were equilibrated to room temperature, and enzyme/substrate Recombinant Firefly Luciferase/Beetle Luciferin was reconstituted. The cell plates were equilibrated to room temperature for 30 minutes, then lysed by addition of an equivalent volume of the Celltiter-Glo Reagent. The plate was mixed for 10 minutes on a plate shaker to lyse the cells. The plates were read on a Tecan M1000 using Luminescence protocol modified to read 0.1 s per well. The luminescence reading assesses the ATP content, which correlates directly with cell number such that the reading as a function of compound concentration was used to determine the IC50 value.

IC50 [1] [µM]	IC50 [2] [µM]	SMILES
0.0001 to 10	0.0001 to 10	O=C(c1cccc(-c2cnc3[nH]c(-c4ccccc4)cc3c2)n1)N1CCC(F)(F)C1 [Compound P-0093, (3,3-difluoropyrrolidin-1-yl)-[6-(2-phenyl-1H-pyrrolo[2,3-b]pyridin-5-yl)-2-pyridyl]methanone]
0.0001 to 10	0.0001 to 10	COC1CCN(C(=O)c2cccc(-c3cnc4[nH]c(-c5ccccc5)cc4c3)n2)C1 (stereo not shown) [Compound P-0095, (3-methoxypyrrolidin-1-yl)-[6-(2-phenyl-1H-pyrrolo[2,3-b]pyridin-5-yl)-2-pyridyl]methanone]
0.0001 to 10	0.0001 to 10	CNC(=O)C1CCN(C(=O)c2cccc(-c3cnc4[nH]c(-c5ccccc5)cc4c3)n2)C1 (stereo not shown) [Compound P-0096, N-methyl-1-[6-(2-phenyl-1H-pyrrolo[2,3-b]pyridin-5-yl)pyridine-2-carbonyl]pyrrolidine-3-carboxamide]
0.0001 to 10	0.0001 to 10	O=C(c1cccc(-c2cnc3[nH]c(-c4ccccc4)cc3c2)n1)N1CCC(n2ccnc2)C1 (stereo not shown) [Compound P-0097, (3-imidazol-1-ylpyrrolidin-1-yl)-[6-(2-phenyl-1H-pyrrolo[2,3-b]pyridin-5-yl)-2-pyridyl]methanone]
0.0001 to 10	0.0001 to 10	N#CCCNC(=O)c1cccc(-c2cnc3[nH]c(-c4ccccc4)cc3c2)n1 [Compound P-0099, N-(2-cyanoethyl)-6-(2-phenyl-1H-pyrrolo[2,3-b]pyridin-5-yl)pyridine-2-carboxamide]
0.0001 to 10	0.0001 to 10	CC(C)(C#N)CNC(=O)c1cccc(-c2cnc3[nH]c(-c4ccccc4)cc3c2)n1 [Compound P-0100, N-(2-cyano-2-methyl-propyl)-6-(2-phenyl-1H-pyrrolo[2,3-b]pyridin-5-yl)pyridine-2-carboxamide]
0.0001 to 10	0.0001 to 10	N#CC1CCN(C(=O)c2cccc(-c3cnc4[nH]c(-c5ccccc5)cc4c3)n2)C1 (stereo not shown) [Compound P-0105, 1-[6-(2-phenyl-1H-pyrrolo[2,3-b]pyridin-5-yl)pyridine-2-carbonyl]pyrrolidine-3-carbonitrile]
0.0001 to 10	0.0001 to 10	CN[C@@H]1CCN(C(=O)c2ccc(-c3cnc4[nH]c(-c5ccccc5)cc4c3)s2)C1 [Compound P-0106, [(3R)-3-(methylamino)pyrrolidin-1-yl]-[5-(2-phenyl-1H-pyrrolo[2,3-b]pyridin-5-yl)-2-thienyl]methanone]
0.0001 to 10	0.0001 to 10	CS(=O)(=O)N1CCC(NS(=O)(=O)c2cccc(-c3cnc4[nH]c(-c5ccccc5)cc4c3)n2)C1 (stereo not shown) [Compound P-0107, N-(1-methylsulfonylpyrrolidin-3-yl)-6-(2-phenyl-1H-pyrrolo[2,3-b]pyridin-5-yl)pyridine-2-sulfonamide]
0.0001 to 10	0.0001 to 10	O=S(=O)(NC1CC1)c1cccc(-c2cnc3[nH]c(-c4ccccc4)cc3c2)n1 [Compound P-0109, N-cyclopropyl-6-(2-phenyl-1H-pyrrolo[2,3-b]pyridin-5-yl)pyridine-2-sulfonamide]
0.0001 to 10	0.0001 to 10	N#CC1(NC(=O)c2cccc(-c3cnc4[nH]c(-c5ccccc5)cc4c3)n2)CC1 [Compound P-0111, N-(1-cyanocyclopropyl)-6-(2-phenyl-1H-pyrrolo[2.3-b]pyridin-5-yl]pyridine-2-carboxamide]
0.0001 to 10	0.0001 to 10	O=C(c1cccc(-c2cnc3[nH]c(-c4cnn(CC(F)(F)F)c4)cc3c2)n1)N1CCC(F)(F)C1 [Compound P-0112, (3,3-difluoropyrrolidin-1-yl)-[6-[2-[1-(2,2,2-trifluoroethyl)pyrazol-4-yl]-1H-pyrrolo[2,3-b]pyridin-5-yl]-2-pyridyl]methanone]
0.0001 to 10	0.0001 to 10	CC(C)(C#N)CNC(=O)c1cccc(-c2cnc3[nH]c(-c4cnn(CC(F)(F)F)c4)cc3c2)n1 [Compound P-0113, N-(2-cyano-2-methyl-propyl)-6-[2-[1-(2,2,2-trifluoroethyl)pyrazol-4-yl]-1H-pyrrolo[2,3-b]pyridin-5-yl]pyridine-2-carboxamide]
0.0001 to 10	0.0001 to 10	N#CC1(NC(=O)c2cccc(-c3cnc4[nH]c(-c5ccccc5)cc4c3)n2)CCC1 [Compound P-0114, N-(1-cyanocyclobutyl)-6-(2-phenyl-1H-pyrrolo[2,3-b]pyridin-5-yl)pyridine-2-carboxamide]
0.0001 to 10	0.0001 to 10	N#CC1(F)CCN(C(=O)c2cccc(-c3cnc4[nH]c(-c5ccccc5)cc4c3)n2)C1 (stereo not shown) [Compound P-0115, 3-fluoro-1-[6-(2-phenyl-1H-pyrrolo[2,3-b]pyridin-5-yl)pyridine-2-carbonyl]pyrrolidine-3-carbonitrile]
0.0001 to 10	0.0001 to 10	N#C[C@H]1CCN(C(=O)c2cccc(-c3cnc4[nH]c(-c5ccccc5)cc4c3)n2)C1 [Compound P-0117, (3S)-1-[6-(2-phenyl-1H-pyrrolo[2,3-b]pyridin-5-yl)pyridine-2-carbonyl]pyrrolidine-3-carbonitrile]
0.0001 to 10	0.0001 to 10	CC(C)(C#N)NC(=O)c1cccc(-c2cnc3[nH]c(-c4ccccc4)cc3c2)n1 [Compound P-0118, N-(1-cyano-1-methyl-ethyl)-6-(2-phenyl-1H-pyrrolo[2,3-b]pyridin-5-yl)pyridine-2-carboxamide]
